The source of these data is patent publication US8722729B2, “Unsaturated fatty acid monoesters and diesters on ascorbic acid and cosmetic uses thereof” (Pierre Fabre Dermo-Cosmetique, priority 2009, dated 2014).

“Also recorded” adds a separate entry of the source. Marks after values point to notes of the source that are not given here.

For experiment [1], the target named is T1, hyaluronidase of bovine origin (BTH, Bovine Testis hyaluronidase) (Bos taurus, UniProt Q2YDK3).
T1 sequence (Q2YDK3 1-553): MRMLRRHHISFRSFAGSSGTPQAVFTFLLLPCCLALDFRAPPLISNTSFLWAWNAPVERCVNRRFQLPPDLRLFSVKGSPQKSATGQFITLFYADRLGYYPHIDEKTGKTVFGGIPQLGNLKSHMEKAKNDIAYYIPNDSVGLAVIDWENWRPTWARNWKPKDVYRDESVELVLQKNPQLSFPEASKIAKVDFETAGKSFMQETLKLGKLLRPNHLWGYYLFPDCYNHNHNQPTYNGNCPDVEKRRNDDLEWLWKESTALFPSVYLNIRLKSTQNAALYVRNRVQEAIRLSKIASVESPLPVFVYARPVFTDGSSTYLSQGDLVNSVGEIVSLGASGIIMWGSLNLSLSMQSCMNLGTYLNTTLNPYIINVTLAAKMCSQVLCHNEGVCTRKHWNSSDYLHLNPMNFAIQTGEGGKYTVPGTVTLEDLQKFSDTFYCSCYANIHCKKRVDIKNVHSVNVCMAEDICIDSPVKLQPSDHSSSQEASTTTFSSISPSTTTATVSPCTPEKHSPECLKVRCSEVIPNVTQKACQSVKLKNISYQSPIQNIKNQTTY
As to the kind of experiment: Assay of hyaluronidase activity (residual HA, HA-ELISA). The experiment is classed as biochemical. The method, then: Hyaluronidase activity is measured by the assay of residual hyaluronic acid (HA). The substrate is fixed to a carrier then placed in the presence of an enzyme and a quantity of compound to be tested. The residual HA i.e. the non-hydrolyzed HA is assayed using a HA-Elisa detection system: Hyaluronan enzyme-linked immunosorbent assay (Echelon Biosciences®).
0.5 units of hyaluronidase of bovine origin (BTH, Bovine Testis hyaluronidase) were pre-incubated at 37° C. with the compound to be tested. This mixture was deposited on the HA fixed to the surface of a microplate well. The enzymatic reaction took place at pH 7.2n at 37° C. Washing was followed by a recognition step of residual HA by hyaluronectin (NH). The quantity of bonded NH was measured by ELISA using an anti-NH antibody conjugated with alkaline phosphatase. The p-nitrophenyl phosphate disodium salt (pnNpp) substrate of the phosphatase allows spectrometric detection at 405 nm. (Delpech B et al., Analytical Biochemistry 149, 555(565 (1985); Robert Stern et al. Analytical Biochemistry 251, 263-269 (1997)). OD intensity was correlated with the quantity of residual HA. The quantity of residual HA is directly linked to enzymatic activity. In the presence of an inhibitor, the larger the quantity of residual HA the more the sample is inhibiting. A percentage inhibition of hyaluronidase will be expressed.
Therefore the net enzymatic activities were calculated which represent the difference in mean gross activity without enzyme and the gross activity of the enzyme with or without the compound to be tested.
The percentage enzymatic inhibition related to the compound to be tested was calculated as follows: % inhibition=(Maximum net enzymatic activity)−Net enzymatic activity in the presence of the compound to be tested)/Maximum net enzymatic activity.
where the maximum net enzymatic activity represents the mean net enzymatic activity of 0.5 U.
(In general: An ELISA detects its analyte on a solid surface through an enzyme-linked reagent.)

In another experiment the test system is MMP-1. Description: Gene expression of MMP-1 in human dermal fibroblasts treated with H2O2 (real-time PCR). The experiment is classed as cell-based. Conditions: for RQ (relative quantity of mRNA) MMP-1 / % Inhibition of the level of mRNA expression MMP-1: 3 μM; for RQ (relative quantity of mRNA) MMP-1: senescent fibroblasts stimulated with H2O2, non-treated control = 1; for % Inhibition of the level of mRNA expression MMP-1: vs H2O2 alone. On the procedure:
To evidence the activity of the compounds of general formula (I) against skin ageing and against inflammation, the effect of these compounds was measured on the gene expression of MMP-1, MMP-3 and IL8 in human dermal fibroblasts treated with H2O2, thereby mimicking the process of cellular senescence. The effect of these compounds of general formula (I) was also measured on the synthesis of hyaluronic acid and on hyaluronidase activity. The stimulation of the synthesis of hyaluronic acid also allows skin hydration to be improved and/or restored (Bissett D L. J. Cosmet. Dermatol. 2006 Dec. 5(4): 309-15. Glucosamine: an ingredient with skin and other benefits).
Human dermal fibroblasts (isolated from discarded operative skin) were cultured in DMEM culture medium+10% FCS. The cells were pre-treated with vitamin C and the compound to be tested for 16 h at 37° C. and then stimulated with H2O2. The cells were then replaced in DMEM with vitamin C and dioctadeca-9,12-dienoate of (9Z,9′Z,12Z,12′Z)-2-(2,2-dimethyl-1,3-dioxolan-4-yl)-5-oxo-2,5-dihydrofuran-3,4-diyl. 72 hours after ending of stress, the fibroblasts entered into senescence: the senescent fibroblasts no longer proliferate but remain metabolically active (Hayflick, J. Invest. Dermatol., 73; 8-14, 1979). The cells were then lysed with the lysis buffer of the RNeasy® kit (QIAGEN).
The extracted RNAs were converted to complementary DNA following the indications of the Quantitect Reverse Transcription kit by Qiagen. Real-time PCR analyses were conducted using an iQ cycler fluorescence thermocycler (BIO-RAD).
The level of expression of the mRNAs coding for MMP-1, MMP-3, IL8 was analyzed using the real-time PCR technique. To normalize the level of expression of the gene of interest, the analysis strategy developed by Vandesompela et al., Genome Biol. 3: RESEARCH0034 (2002) was chosen. […] In our model, the three tested reference genes were the following: β-actin (Human β-actin), GAPDH (Human glyceraldehyde-3-phosphate dehydrogenase) and YWHAZ (Tyrosine-3-monooxygenase, tryptopgan-5-monooxygenase activation protein zeta polypeptide).
The first step normalizes the Ct values obtained for the gene of interest in relation to the Ct values obtained for the reference gene, for each experimental condition.
The following was therefore calculated: ΔCt=Ctgene of interest−Ctreference gene
The second step of the calculation determines the variation in the number of copies of the gene of interest during treatment. To do so ΔΔCt is calculated: ΔΔCt=ΔCtnon-treated NHF−ΔCttreated NHF
For the non-treated control, this QR is therefore equal to 1. It is then possible to calculate an induction or inhibition factor of the gene of interest compared with this control.
Statistical analysis was performed using a test called “one-way ANOVA”. Variance analysis using the Dunnett test then allows the comparing, for each of the analyzed genes, of the ΔCt values of normal adult fibroblasts with the compounds in the presence of H2O2 in both cases. This test then gives the “p value” characterizing the significance of the results obtained for both conditions The degree of significance was established as follows: • significant for p<0.05(*) • very significant for p<0.005(**) • highly significant for p<0.001(***) • non-significant for p>0.05. […]
It is also possible to calculate percentage inhibition of the level of expression of the different mRNAs by the active ingredients to be evaluated, using the formula: […]
(Real-time PCR tracks product formation cycle by cycle.)

Setting [2] is: 0.5 U BTH, read-out: Enzymatic inhibition (mean as a percentage).

What is called inhibition is the relative decrease from the control value, in per cent. `O=C1O[C@H]([C@@H](O)CO)C(O)=C1O` [Ascorbic acid, ascorbic acid]: the “Effect on hyaluronidase” value in experiment [1] was “no effect”. Moreover, in experiment [1] (setting [2]), the inhibition at 100 µM worked out at 1% and the inhibition at 500 µM came to 4%. In addition, in the experiment with MMP-1, the “RQ (relative quantity of mRNA) MMP-1” value stood at 3.2 and the “% Inhibition of the level of mRNA expression MMP-1” value came out at 18%.
Usually IC50 stands for the concentration that gives 50% inhibition. A higher IC50 goes with weaker potency. As to `CCCCC/C=C\C/C=C\CCCCCCCC(=O)OC1=C(OC(=O)CCCCCCC/C=C\C/C=C\CCCCC)C(C2COC(C)(C)O2)OC1=O` (centres unmarked) [Molecule 1, diactodeca-9,12-dienoate of (9Z,9′Z,12Z,12′Z)-2-(2,2-dimethyl-1,3-dioxolan-4-yl)-5-oxo-2,5-dihydrofuran-3,4-diyl], the “Effect on hyaluronidase” value in experiment [1] is listed as “strongly inhibit hyaluronidase; also recorded: equivalent to or more active than ascorbyl palmitate”. Moreover, the inhibition at 5 µM in experiment [1] (5 μM, 0.5 U BTH, read-out: Enzymatic inhibition (mean as a percentage)) worked out at 14%. In addition, the inhibition at 10 µM in experiment [1] (10 μM, 0.5 U BTH, read-out: Enzymatic inhibition (mean as a percentage)) was determined as 21%. For the same compound, the inhibition at 20 µM in experiment [1] (20 μM, 0.5 U BTH, read-out: Enzymatic inhibition (mean as a percentage)) amounted to 44%. For the same compound, the inhibition at 25 µM in experiment [1] (25 μM, 0.5 U BTH, read-out: Enzymatic inhibition (mean as a percentage)) turned out to be 46%. Further, the inhibition at 30 µM in experiment [1] (30 μM, 0.5 U BTH, read-out: Enzymatic inhibition (mean as a percentage)) is 66%. Also, the inhibition at 40 µM in experiment [1] (40 μM, 0.5 U BTH, read-out: Enzymatic inhibition (mean as a percentage)) is 86%. Moreover, in experiment [1] (50 μM, 0.5 U BTH, read-out: Enzymatic inhibition (mean as a percentage)), the inhibition at 50 µM was 76%. For the same compound, in experiment [1] (setting [2]), the inhibition at 100 µM came out at 113% and the inhibition at 500 µM amounted to 122%. Besides, in experiment [1] (250 μM, 0.5 U BTH, read-out: Enzymatic inhibition (mean as a percentage)), the inhibition at 250 µM stood at 119%. This compound had an IC50 in experiment [1] (in the region of) of 25 to 30 µM. Further, in the experiment with MMP-1, the “Inhibition of MMP1 expression compared with ascorbic acid” value was “more substantially inhibits the expression of MMP1, MMP3 and IL-8 than ascorbic acid”; the “RQ (relative quantity of mRNA) MMP-1” value came out at 0.9; the “% Inhibition of the level of mRNA expression MMP-1” value is 105*** %.
